Measurements: ChEMBL document CHEMBL5143519, “Exploring disordered loops in DprE1 provides a functional site to combat drug-resistance in Mycobacterium strains” (Eur J Med Chem, 2022)
≈ marks a conversion by molar mass, not a printed value.

Experiments:
[1] = Inhibition of Mycobacterium tuberculosis DprE1 Y314A mutant expressed in Escherichia coli BL21 DE3 assessed as formation of resorufin using FPR as substrate incubated for 10 mins by Amplex Red dye microplate assay
[2] = Inhibition of Mycobacterium tuberculosis DprE1 C387A mutant expressed in Escherichia coli BL21 DE3 assessed as formation of resorufin using FPR as substrate incubated for 10 mins by Amplex Red dye microplate assay
[3] = Inhibition of Mycobacterium tuberculosis DprE1 C387S mutant expressed in Escherichia coli BL21 DE3 assessed as formation of resorufin using FPR as substrate incubated for 10 mins by Amplex Red dye microplate assay
[4] = Inhibition of Mycobacterium tuberculosis DprE1 K418A mutant expressed in Escherichia coli BL21 DE3 assessed as formation of resorufin using FPR as substrate incubated for 10 mins by Amplex Red dye microplate assay
[5] = system: Mycobacterium tuberculosis; test: Antimycobacterial activity against rifampin resistant Mycobacterium tuberculosis H37Rv assessed as inhibition of bacterial growth incubated for 7 days by microplate alamar blue assay; assay type: functional; conditions: 168 h, time 7 day
[6] = system: Mycobacterium tuberculosis; test: Antimycobacterial activity against Mycobacterium tuberculosis DprE1 C387S assessed as inhibition of bacterial growth incubated for 7 days by microplate alamar blue assay; assay type: functional; conditions: time 7 day
[7] = system: Mycobacterium tuberculosis; test: Antimycobacterial activity against multidrug-resistant Mycobacterium tuberculosis clinical isolate HD1 assessed as inhibition of bacterial growth incubated for 7 days by microplate alamar blue assay; assay type: functional; conditions: Clinical isolate HD1, 168 h, time 7 day
[8] = system: Mycobacterium tuberculosis; test: Antimycobacterial activity against multidrug-resistant Mycobacterium tuberculosis clinical isolate HD2 assessed as inhibition of bacterial growth incubated for 7 days by microplate alamar blue assay; assay type: functional; conditions: Clinical isolate HD2, 168 h, time 7 day
[9] = system: Mycobacterium tuberculosis; test: Antimycobacterial activity against multidrug-resistant Mycobacterium tuberculosis clinical isolate HD3 assessed as inhibition of bacterial growth incubated for 7 days by microplate alamar blue assay; assay type: functional; conditions: Clinical isolate HD3, 168 h, time 7 day
[10] = system: Mycobacterium tuberculosis; test: Antimycobacterial activity against multidrug-resistant Mycobacterium tuberculosis clinical isolate HD4 assessed as inhibition of bacterial growth incubated for 7 days by microplate alamar blue assay; assay type: functional; conditions: Clinical isolate HD4, 168 h, time 7 day
[11] = system: Mycobacterium tuberculosis; test: Antimycobacterial activity against multidrug-resistant Mycobacterium tuberculosis clinical isolate HD5 assessed as inhibition of bacterial growth incubated for 7 days by microplate alamar blue assay; assay type: functional; conditions: Clinical isolate HD5, 168 h, time 7 day
[12] = system: Mycobacterium tuberculosis; test: Antimycobacterial activity against rifampin resistant Mycobacterium tuberculosis H37Rv assessed as reduction in bacterial colony forming units at 20 times MIC concentration measured after 21 days by time kill assay; assay type: functional; conditions: time 21 day

Row | Compound | IC50 [1] | IC50 [2] | IC50 [3] | IC50 [4] | MIC [5] | MIC [6] | MIC [7] | MIC [8] | MIC [9] | MIC [10] | MIC [11] | Activity [12]
1 | CCOC(=O)NC(=O)c1ccsc1NC(=O)c1nc2ccccc2s1 | 0.11 µM | 44 µM | 5.79 µM | 65 µM | 3.32 µM (≈ 1.25 µg/mL) | 6.65 µM (≈ 2.5 µg/mL) | 4.15 µM (≈ 1.56 µg/mL) | 8.33 µM (≈ 3.13 µg/mL) | 2.07 µM (≈ 0.777 µg/mL) | 8.33 µM (≈ 3.13 µg/mL) | 8.33 µM (≈ 3.13 µg/mL) | 3.5 log10CFU/ml
2 | O=C(NC(=O)c1ccsc1NC(=O)c1nc2ccccc2s1)OCC1CC1 | 0.029 µM | 0.069 µM | 0.059 µM | 8.93 µM | 1.57 µM (≈ 0.63 µg/mL) | 1.57 µM (≈ 0.63 µg/mL) | 1.94 µM (≈ 0.779 µg/mL) | 3.88 µM (≈ 1.56 µg/mL) | 0.97 µM (≈ 0.389 µg/mL) | 1.94 µM (≈ 0.779 µg/mL) | 1.94 µM (≈ 0.779 µg/mL) | 3.5 log10CFU/ml
3 | O=C(NC(=O)c1ccsc1NC(=O)c1nc2ccccc2s1)OCC1CCC1 | – | – | – | – | 6.01 µM (≈ 2.5 µg/mL) | – | 1.88 µM (≈ 0.781 µg/mL) | 3.76 µM (≈ 1.56 µg/mL) | 1.88 µM (≈ 0.781 µg/mL) | 3.76 µM (≈ 1.56 µg/mL) | 3.76 µM (≈ 1.56 µg/mL) | –
4 | CC(=O)c1ccc(C(=O)Nc2sccc2C(=O)NC(=O)OCC2CC2)cc1 | – | 3.33 µM | 3.98 µM | – | – | – | – | – | – | – | – | –
5 | COc1nc2ccc(Br)cc2cc1[C@@H](c1ccccc1)[C@@](O)(CCN(C)C)c1cccc2ccccc12 [BEDAQUILINE] | – | – | – | – | – | – | 0.07 µM (≈ 0.0389 µg/mL) | 0.29 µM (≈ 0.161 µg/mL) | 0.14 µM (≈ 0.0778 µg/mL) | 0.58 µM (≈ 0.322 µg/mL) | 0.07 µM (≈ 0.0389 µg/mL) | –
6 | NNC(=O)c1ccncc1 [ISONIAZID] | – | – | – | – | – | – | 18.2 µM (≈ 2.5 µg/mL) | 36.5 µM (≈ 5 µg/mL) | 9.11 µM (≈ 1.25 µg/mL) | 18.2 µM (≈ 2.5 µg/mL) | 36.5 µM (≈ 5 µg/mL) | –
7 | CO[C@H]1/C=C/O[C@@]2(C)Oc3c(C)c(O)c4c(O)c(c(/C=N/N5CCN(C)CC5)c(O)c4c3C2=O)NC(=O)/C(C)=C\C=C\[C@H](C)[C@H](O)[C@@H](C)[C@@H](O)[C@@H](C)[C@H](OC(C)=O)[C@@H]1C [RIFAMPIN] | – | – | – | – | 1.13 µM (≈ 0.93 µg/mL) | 0.35 µM (≈ 0.288 µg/mL) | 1.9 µM (≈ 1.56 µg/mL) | 3.82 µM (≈ 3.14 µg/mL) | 0.95 µM (≈ 0.782 µg/mL) | 1.9 µM (≈ 1.56 µg/mL) | 3.82 µM (≈ 3.14 µg/mL) | –
